Reference: US20240262832A1, “SMALL MOLECULE MODULATORS OF GLUCOCEREBROSIDASE ACTIVITY AND USES THEREOF” (Vanqua Bio, Inc., priority 2021, published 2024)

molecular target: T1, GCase (Homo sapiens, UniProt P04062); assay: activation of GCase in a live cell PFB assay in HELA cells; type: cell-based
T1 construct: endogenous in cells; host or cells: HeLa cells
T1 sequence (P04062 40-536): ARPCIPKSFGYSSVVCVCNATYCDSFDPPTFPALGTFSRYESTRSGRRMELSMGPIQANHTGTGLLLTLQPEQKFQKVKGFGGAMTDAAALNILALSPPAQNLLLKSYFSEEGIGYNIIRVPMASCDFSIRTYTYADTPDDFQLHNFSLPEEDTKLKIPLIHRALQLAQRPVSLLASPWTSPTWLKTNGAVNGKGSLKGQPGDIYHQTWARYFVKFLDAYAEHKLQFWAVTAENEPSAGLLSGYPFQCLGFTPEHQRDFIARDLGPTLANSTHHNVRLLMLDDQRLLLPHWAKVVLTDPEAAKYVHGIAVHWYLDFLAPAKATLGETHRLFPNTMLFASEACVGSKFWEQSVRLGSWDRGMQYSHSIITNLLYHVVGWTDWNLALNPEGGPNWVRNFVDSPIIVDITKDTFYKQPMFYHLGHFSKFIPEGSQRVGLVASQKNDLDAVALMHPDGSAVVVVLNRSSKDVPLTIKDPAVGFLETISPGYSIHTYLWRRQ

`COc1ccc(OCC2CCN(C(=O)c3cc(C(C)C)nc(N)n3)CC2)cc1` [Compound 461] and `CCc1cc(N2CCC(COc3ccc(OC)cc3)CC2)ncn1` [Compound 464] fall in the same range of EC50: 10 to 50 µM for the first, 10 to 50 µM for the second.

First: Fc1cc(F)cc(OCC2CCCN(c3cnc4cnn(C5COC5)c4n3)C2)c1 (stereo not drawn) [Compound 88, 6-(3-((3,5-Difluorophenoxy)methyl)piperidin-1-yl)-1-(oxetan-3-yl)-1H-pyrazolo[3,4-b]pyrazine]
Second: FC(F)Cn1ncc2ncc(N3CCCC(COc4cccnc4Cl)C3)nc21 (stereo not drawn) [Compound 59, 2-Chloro-3-({1-[1-(2,2-difluoroethyl)pyrazolo[3,4-b]pyrazin-6-yl]piperidin-3-yl}methoxy) pyridine]
The EC50 of the first is higher: 10 to 50 µM for the first, less than 10 µM for the second.

`FC(F)Cn1ncc2ncc(N3CCC(COc4cc(C(F)(F)F)ccn4)CC3)nc21` [Compound 324, 2-({1-[1-(2,2-Difluoroethyl)-1H-pyrazolo[3,4-b]pyrazin-6-yl]piperidin-4-yl}methoxy)-4-(trifluoromethyl)pyridine] and `FC(F)Cn1ncc2ncc(N3CCC(COc4ncccc4C(F)(F)F)CC3)nc21` [Compound 313, 1-(2,2-Difluoroethyl)-6-(4-(((3-(trifluoromethyl)pyridin-2-yl)oxy)methyl)piperidin-1-yl)-1H-pyrazolo[3,4-b]pyrazine] fall in the same range of EC50: 10 to 50 µM for the first, 10 to 50 µM for the second.

`CC1CCC(COc2cccnc2C(F)(F)F)CN1c1cnc2cnn(CC(F)(F)F)c2n1` (stereo not drawn) [Compound 122, 6-(2-Methyl-5-(((2-(trifluoromethyl)pyridin-3-yl)oxy)methyl)piperidin-1-yl)-1-(2,2,2-trifluoroethyl)-1H-pyrazolo[3,4-b]pyrazine] and `COCCn1ncc2ncc(N3CC(COc4cccnc4C(F)(F)F)CCC3C)nc21` (stereo not drawn) [Compound 123, 1-(2-Methoxyethyl)-6-(2-methyl-5-(((2-(trifluoromethyl)pyridin-3-yl)oxy)methyl)piperidin-1-yl)-1H-pyrazolo[3,4-b]pyrazine] cannot be ordered by EC50: less than 10 µM for the first, less than 10 µM for the second.

`O=C(CCc1cccc(C(F)(F)F)c1)N1CCCC(COc2ccccc2)C1` (stereo not drawn) [Compound 150] and `O=C(c1cc(=O)c2cc(Cl)ccc2o1)N1CCCC(COc2ccccc2)C1` (stereo not drawn) [Compound 8] fall in the same range of EC50: 10 to 50 µM for the first, 10 to 50 µM for the second.

`O=C(c1ccc2cc[nH]c2c1)N1CCC(Oc2ccc(C(F)(F)F)cn2)CC1` [Compound 333, (1H-Indol-6-yl)(4-((5-(trifluoromethyl)pyridin-2-yl)oxy)piperidin-1-yl)methanone] and `O=C(c1ccc2cc[nH]c2c1)N1CCC(Oc2ccnc(C(F)(F)F)c2)CC1` [Compound 319, (1H-Indol-6-yl)(4-((2-(trifluoromethyl)pyridin-4-yl)oxy)piperidin-1-yl)methanone] fall in the same range of EC50: 10 to 50 µM for the first, 10 to 50 µM for the second.

`CC(=O)N1CCC(n2ncc3ncc(N4CCCC(COc5ccccc5C(F)(F)F)C4)nc32)CC1` (stereo not drawn) [Compound 111, 1-(4-(6-(3-((2-(trifluoromethyl)phenoxy)methyl)piperidin-1-yl)-1H-pyrazolo[3,4-b]pyrazin-1-yl)piperidin-1-yl)ethan-1-one] and `CC(=O)N1CCC(c2cc3ncc(N4CCCC(COc5cccnc5C(F)(F)F)C4)nc3n2C)CC1` (stereo not drawn) [Compound 73, 1-(4-(5-methyl-3-(3-(((2-(trifluoromethyl)pyridin-3-yl)oxy)methyl)piperidin-1-yl)-5H-pyrrolo[2,3-b]pyrazin-6-yl)piperidin-1-yl)ethan-1-one] cannot be ordered by EC50: less than 10 µM for the first, less than 10 µM for the second.

First: COc1ccc(OCC2CCN(C(=O)NCCc3nccs3)CC2)cc1 [Compound 480]
Second: c1ccc(OCC2CCN(c3cnc4ccccc4n3)CC2)cc1 [Compound 418, 2-[4-(Phenoxymethyl)piperidin-1-yl]quinoxaline]
The EC50 of the first is higher: greater than 100 µM for the first, 10 to 50 µM for the second. The second is the more potent here.

First: FC(F)Cn1ncc2ncc(N3C[C@H](COc4cccnc4C(F)(F)F)C[C@H](OC(F)F)C3)nc21 [Compound 299a, 1-(2,2-Difluoroethyl)-6-((3S,5R)-3-(difluoromethoxy)-5-(((2-(trifluoromethyl)pyridin-3-yl)oxy)methyl)piperidin-1-yl)-1H-pyrazolo[3,4-b]pyrazine]
Second: FC(F)Cn1ncc2ncc(N3C[C@H](COc4cccnc4C(F)(F)F)C[C@@H](OC(F)F)C3)nc21 [Compound 299b, 1-(2,2-Difluoroethyl)-6-((3R,5R)-3-(difluoromethoxy)-5-(((2-(trifluoromethyl)pyridin-3-yl)oxy)methyl)piperidin-1-yl)-1H-pyrazolo[3,4-b]pyrazine]
The EC50 of the first is higher: 10 to 50 µM for the first, less than 10 µM for the second. The second is the more potent here.

`C[C@H]1C[C@@H](COc2cccnc2C(F)(F)F)CN(c2cnc3cnn(CC(F)F)c3n2)C1` [Compound 93, 1-(2,2-Difluoroethyl)-6-((3S,5R)-3-methyl-5-(((2-(trifluoromethyl)pyridin-3-yl)oxy)methyl)piperidin-1-yl)-1H-pyrazolo[3,4-b]pyrazine] and `FC(F)Cn1ncc2ncc(N3CCCC(COc4cccnc4C(F)(F)F)C3)nc21` (stereo not drawn) [Compound 13, 3-({1-[1-(2,2-difluoroethyl)pyrazolo[3,4-b]pyrazin-6-yl]piperidin-3-yl}methoxy)-2-(trifluoromethyl)pyridine] cannot be ordered by EC50: less than 10 µM for the first, less than 10 µM for the second.

`O=C(C1C[C@@H]2C[C@@H](C1)CC(F)(F)C2)N1CCCC(COc2ccccc2)C1` (stereo partly drawn) [Compound 151] and `C[C@@H]1[C@H](C(=O)N2CCCC(COc3ccccc3)C2)CCN1c1ccccc1` (stereo partly drawn) [Compound 199] fall in the same range of EC50: 10 to 50 µM for the first, 10 to 50 µM for the second.

`C[C@@H]1C[C@H](COc2cccnc2C(F)(F)F)CN(c2cnc3cnn(CC45CC(C4)C5)c3n2)C1` [Compound 281, 1-(Bicyclo[1.1.1]pentan-1-ylmethyl)-6-((3R,5S)-3-methyl-5-(((2-(trifluoromethyl)pyridin-3-yl)oxy)methyl)piperidin-1-yl)-1H-pyrazolo[3,4-b]pyrazine] and `CC1C(COc2cccnc2C(F)(F)F)CCCN1c1cnc2cnn(CC(F)F)c2n1` (stereo not drawn) [Compound 116, 1-(2,2-Difluoroethyl)-6-(2-methyl-3-(((2-(trifluoromethyl)pyridin-3-yl)oxy)methyl)piperidin-1-yl)-1H-pyrazolo[3,4-b]pyrazine] cannot be ordered by EC50: less than 10 µM for the first, less than 10 µM for the second.

First: FC(F)Cn1ncc2ncc(N3C[C@@H]4[C@@H](COc5cc(C(F)(F)F)ccn5)[C@@H]4C3)nc21 [Compound 90, (1R,5S,6S)-3-[1-(2,2-difluoroethyl)-1H-pyrazolo[3,4-b]pyrazin-6-yl]-6-({[4-(trifluoromethyl)pyridin-2-yl]oxy}methyl)-3-azabicyclo[3.1.0]hexane]
Second: C[C@@H]1CC[C@H](COc2ccc(C(F)(F)F)cn2)CN1c1cnc2cnn(CC(F)F)c2n1 [Compound 275, 1-(2,2-Difluoroethyl)-6-((2R,5S)-2-methyl-5-(((5-(trifluoromethyl)pyridin-2-yl)oxy)methyl)piperidin-1-yl)-1H-pyrazolo[3,4-b]pyrazine]
The EC50 of the first is lower: 10 to 50 µM for the first, greater than 100 µM for the second.

First: CC(C)c1cc(C(=O)N2C[C@@H](C)C[C@H](COc3cccnc3C(F)(F)F)C2)[nH]n1 [Compound 234b, (3-Isopropyl-1H-pyrazol-5-yl)((3S,5S)-3-methyl-5-(((2-(trifluoromethyl)pyridin-3-yl)oxy)methyl)piperidin-1-yl)methanone]
Second: O=c1[nH]c(N2CCC[C@H](COc3cccnc3C(F)(F)F)C2)cc2c1cnn2CC(F)F [Compound 306, (S)-1-(2,2-difluoroethyl)-6-(3-(((2-(trifluoromethyl)pyridin-3-yl)oxy)methyl)piperidin-1-yl)-1,5-dihydro-4H-pyrazolo[4,3-c]pyridin-4-one]
The EC50 of the first is lower: 10 to 50 µM for the first, greater than 100 µM for the second. The first is the more potent here.

First: O=C(N1CCCC(COc2ccccc2)C1)C1(c2nnc(-c3ccccc3)o2)CCOCC1 (stereo not drawn) [Compound 46, (3-(Phenoxymethyl)piperidin-1-yl)(4-(5-phenyl-1,3,4-oxadiazol-2-yl)tetrahydro-2H-pyran-4-yl)methanone]
Second: O=C(N1CCC(COc2cccc(C(F)(F)F)n2)C1)C1(c2ccccc2)CCOCC1 (stereo not drawn) [Compound 6]
The EC50 of the first is higher: 10 to 50 µM for the first, less than 10 µM for the second.

`FC(F)Cn1ncc2ncc(N3CCCC(F)(COc4cccc(C(F)(F)F)n4)C3)nc21` (stereo not drawn) [Compound 43, 2-({1-[1-(2,2-Difluoroethyl)-1H-pyrazolo[3,4-b]pyrazin-6-yl]-3-fluoropiperidin-3-yl}methoxy)-6-(trifluoromethyl)pyridine] and `FC(F)Cn1ncc2ncc(N3CC4CC4(COc4cccc(C(F)(F)F)n4)C3)nc21` (stereo not drawn) [Compound 284, 3-[1-(2,2-Difluoroethyl)-1H-Pyrazolo[3,4-b]Pyrazin-6-Yl]-1-({[6-(Trifluoromethyl)Pyridin-2-Yl]Oxy}Methyl)-3-Azabicyclo[3.1.0]Hexane] fall in the same range of EC50: 10 to 50 µM for the first, 10 to 50 µM for the second.

First: CSCc1ccc(C(=O)N2CCC(OCc3ccccc3)CC2)o1 [Compound 435]
Second: CC(C)Sc1ccc(CC(=O)N2CCC(Oc3ccc(C(F)(F)F)cn3)CC2)cc1 [Compound 383]
The EC50 of the first is higher: greater than 100 µM for the first, 10 to 50 µM for the second.

First: Cc1ccccc1OCC1CCCN(C(=O)c2c(C3CC3)n(-c3ccccc3)c3nccnc23)C1 (stereo not drawn) [Compound 255, (6-cyclopropyl-5-phenyl-5H-pyrrolo[2,3-b]pyrazin-7-yl)(3-((o-tolyloxy)methyl)piperidin-1-yl)methanone]
Second: CC(=O)N1CCC(c2cc3nc(C(=O)N4C[C@@H]5[C@@H](COc6cccc(C(F)(F)F)n6)[C@@H]5C4)cnc3n2C)CC1 [Compound 225, 1-(4-(5-Methyl-2-((1R,5S,6r)-6-(((6-(trifluoromethyl)pyridin-2-yl)oxy)methyl)-3-azabicyclo[3.1.0]hexane-3-carbonyl)-5H-pyrrolo[2,3-b]pyrazin-6-yl)piperidin-1-yl)ethan-1-one]
The EC50 of the first is lower: 10 to 50 µM for the first, greater than 100 µM for the second. The first is the more potent here.
